{
  "source": "patent US8337858B2",
  "about": "“Extracts of Aphanizomenon Flos Aquae and nutritional, cosmetic and pharmaceutical compositions containing the same” (Nutratec S.R.L., priority 2006, dated 2012)",
  "key": {"[1]": {"assay": "ORAC (Oxygen Radical Absorbance Capacity) assay with fluorescein and AAPH", "type": "biochemical", "details": "for ORAC value: fluorescein, AAPH 4 mM, 37° C.; for ORACFL value expressed per mg: recalculated from Ou et al., 2001", "protocol": "The ORAC assay was carried out at 37° C. on a FLUOstar OPTIMA spectrofluorimeter (BGM LABTECH, Germany) at 485 nm excitation and 520 nm emission, using the method of Ou et al. (32) with minor modifications. Briefly, in the final assay mixture, fluorescein (FL) (0.05 μM) was used as a target of free radical attack, with AAPH (4 mM) as a peroxyl radical generator. Trolox (1 μM) was used as a control standard and phosphate buffer as a blank. The concentrations of tested compounds in the assay mixture ranged from 0.025 μM to 2 μM. All substances were dissolved and diluted with 75 mM Na-phosphate buffer pH 7; PCB solution was made by dissolving the compound first in ethanol and then bringing the solution to the desired concentration with the buffer. All samples were run in triplicate. Fluorescence was recorded every 5 min after AAPH was added. Final results (ORAC values) were calculated using the differences in the areas under the fluorescence decay curves (AUC) between the sample and blank and expressed as Trolox equivalents: ORAC value=[(AUCsample−AUCblank)/(AUCtrolox−AUCblank)]×(molaritytrolox/molaritysample)\nTo evaluate the antioxidant capacity of the extract in terms of the ORAC test, we used the same methodology we used to test the ORAC for PC and PCB. In order to test both the water soluble and the lipid soluble components of the AFA extract, we first prepared the two water and lipid soluble extracts, as follows.\nPreparation of the Water Soluble Extract • Weigh 10 mg of extract in 1 ml of distilled water and homogenize for 1 min through a mechanical potter. • Centrifuge at 2500 rpm for 10′ at 4° C. to remove cellular debris. • Collect the supernatant and resuspend the pellet in 1 ml of water. • Homogenize for 1 min with a mechanical potter. • Centrifuge at 2500 rpm for 10′ at 4° C. • Collect the supernatant and mix with that obtained from the first water extraction. • Preserve the water extract (with a blue color for the presence of the PC) at +4 o-20° C.\nPreparation of the Lipid Soluble Extract • Resuspend the pellet obtained from the previous extraction in 1 ml of acetone. • Homogenize for 1 min with a mechanical potter. • Centrifuge at 2500 rpm for 10′ at 4° C. • Collect the supernatant and resuspend the pellet in 1 ml of acetone. • Homogenize for 1 min with a mechanical potter. • Centrifuge at 2500 rpm for 10′ at 4° C. • Collect the supernatant and mix with that obtained from the first extraction with acetone. • Preserve the lipophilic extract (with an orange color for the presence of carotenes) at +4°-20° C."}, "COX-1": {"molecular_target": "T1, COX-1 (Ovis aries, UniProt P05979)", "T1 construct": "purchased Cayman", "T1 sequence (P05979 25-600)": "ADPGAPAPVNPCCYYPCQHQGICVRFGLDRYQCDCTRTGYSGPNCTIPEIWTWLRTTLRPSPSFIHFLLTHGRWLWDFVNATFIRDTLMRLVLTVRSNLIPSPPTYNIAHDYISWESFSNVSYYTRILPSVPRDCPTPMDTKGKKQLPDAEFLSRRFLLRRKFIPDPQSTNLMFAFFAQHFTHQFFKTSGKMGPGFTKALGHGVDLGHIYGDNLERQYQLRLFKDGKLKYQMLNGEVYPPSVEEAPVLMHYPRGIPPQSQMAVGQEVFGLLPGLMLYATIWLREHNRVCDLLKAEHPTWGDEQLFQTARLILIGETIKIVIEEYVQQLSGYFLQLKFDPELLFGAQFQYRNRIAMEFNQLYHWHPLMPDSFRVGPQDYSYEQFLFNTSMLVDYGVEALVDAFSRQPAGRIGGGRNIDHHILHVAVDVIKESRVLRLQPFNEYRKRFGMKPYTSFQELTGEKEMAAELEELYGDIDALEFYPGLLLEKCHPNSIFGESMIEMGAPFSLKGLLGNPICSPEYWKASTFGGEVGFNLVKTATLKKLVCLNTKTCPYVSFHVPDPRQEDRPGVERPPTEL", "assay": "COX Inhibitor Screening Assay (Cayman), COX-1", "type": "biochemical", "protocol": "(§1) Given that the phycocyanins from Klamath AFA algae are different from the ones from Spirulina, ands that no test has ever been done on their effect on the COX enzymes, we decided to perform such test through the immunoenzymatic kit “COX Inhibitor Screening Assay” of the Cayman company. We thus evaluated the COX-1 and COX-2 inhibition by the AFA extract (both the water soluble part in water, and the lipid soluble in acetone; range 25-200 μg/ml); by the pure PC (0.03-3 μM) and PCB (0-15 μM). The results are shown in FIG. 29, presenting the graphic of the percent activity of COX-1 and COX-2 at the different concentrations of AFA extract, PC and PCB."}, "Jurkat cells": {"system": "Jurkat cells", "assay": "Intracellular dichlorofluorescein fluorescence in Jurkat cells oxidized with H2O2", "type": "cell-based", "protocol": "Starting from the Basic extract, and following the methodology already described, we have purified the AFA-phycocyanin, with its C-PC/PEC complex, to test its antioxidant properties on live cultured cells. The Jurkat cells (immortalized line of leucemia T-lymphocytes) have been subjected to oxidative stress with 500 μM H2O2, together or without increasing dosages of AFA-PC and PCB. The fluorescence emitted by the intracellular probe (dichlorofluorescein), following oxydation from H2O2, has been recorded after 30 minutes of incubation with H2O2 through a fluorimeter (exc. at 492 nm and emission at 520 nm). By incubating cells with both AFA-PC (range 0.1-10 μM) and 500 μM H2O2 for 30 minutes we observe a dose-dependent protective effect with a reduction of intracellular fluorescence induced by H2O2, with an IC50 of 0.5 μM, and a 100% inhibition (non-oxidized cells) at 10 μM (FIG. 13).\nThe antioxidant properties of the whole PC, composed of C-PC and PEC, resides in its chromophores, which are phycocyanibilin (PCB) for C-PC and both PCB and PVB (phycoviolobilin) for PEC. We have purified the C-PC chromophore PCB, to test it on cultured cells oxidized with H2O2 (range FCB 0.1-40 μM). Also in this case we observe a dose-dependent antioxidant effect with an IC50 of 0.5 μM, and a 100% inhibition (non-oxidized cells) at 40 μM (FIG. 13).\nMost importantly, to evaluate the cellular absorption of PC and PCB, both compounds have been pre-incubated for 2 hrs. with the cells; afterwards, the medium has been washed, to exclude any unabsorbed PC and PCB, and the cells have been oxidized for 30 min. with H2O2. As shown by the FIG. 14, there is a dose-dependent inhibition of intracellular fluorescence. This means that the cell is able to retain both antioxidant molecules, either in the membrane or in the cytoplasm."}, "[2]": {"system": "human plasma oxidized by CuCl2", "assay": "MDA (TBA test) formation in human plasma oxidized by CuCl2", "details": "read-out: IC50, metal-induced oxidation of plasma lipids (MDA); plasma incubated 2 hours at 37° C. with CuCl2 (FIG. 9A panel B)"}, "COX-2": {"molecular_target": "T2, COX-2 (Homo sapiens, UniProt P35354)", "T2 construct": "purchased Cayman", "T2 sequence (P35354 18-604)": "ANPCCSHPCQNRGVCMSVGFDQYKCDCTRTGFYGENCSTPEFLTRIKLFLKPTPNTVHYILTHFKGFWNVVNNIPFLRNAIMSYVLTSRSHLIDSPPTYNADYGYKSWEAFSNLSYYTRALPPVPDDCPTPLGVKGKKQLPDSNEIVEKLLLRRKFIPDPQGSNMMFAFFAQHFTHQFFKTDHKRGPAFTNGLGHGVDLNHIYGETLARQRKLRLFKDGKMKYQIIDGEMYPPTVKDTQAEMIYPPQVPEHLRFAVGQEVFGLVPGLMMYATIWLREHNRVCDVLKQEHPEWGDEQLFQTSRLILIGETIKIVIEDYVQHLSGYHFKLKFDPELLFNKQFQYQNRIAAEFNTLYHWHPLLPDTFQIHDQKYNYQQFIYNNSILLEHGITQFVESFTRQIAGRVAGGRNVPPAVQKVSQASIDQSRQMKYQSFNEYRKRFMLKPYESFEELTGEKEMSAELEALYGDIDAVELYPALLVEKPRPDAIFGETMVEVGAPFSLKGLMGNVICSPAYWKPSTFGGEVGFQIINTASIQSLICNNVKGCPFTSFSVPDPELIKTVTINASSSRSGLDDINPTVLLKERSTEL", "assay": "COX Inhibitor Screening Assay (Cayman), COX-2", "type": "biochemical", "details": "0-15 μM", "protocol": "as §1"}, "[3]": {"details": "Ou et al., 2001; cited from earlier work"}},
  "note": "Where two headings read alike, the source gives them in different places.",
  "data": [
    {"compound": "phycocyanobilin [PCB]", "values": [
      {"measurement": "ORAC value expressed per mg", "setting": "[1]", "value": 37.0, "unit": "μmol Trolox/mg"},
      {"measurement": "ORAC value", "setting": "[1]", "value": 22.18, "unit": "Trolox equiv."},
      {"measurement": "effect on COX-1 activity", "setting": "COX-1", "value": "increases the COX-1 activity"},
      {"measurement": "inhibition of intracellular fluorescence", "setting": "Jurkat cells; 40 μM, together with H2O2", "value": 100, "unit": "%"},
      {"measurement": "oxidative effect (increase of intracellular fluorescence)", "setting": "Jurkat cells; incubated 30 minutes with cells without H2O2", "value": "do not have any oxidative effect"},
      {"measurement": "oxidative effect (increase of intracellular fluorescence)", "setting": "Jurkat cells; incubated 2 hrs. with cells", "value": "did not produce any oxidative effect"},
      {"measurement": "IC50", "setting": "Jurkat cells; incubated together with 500 μM H2O2 for 30 minutes (FIG. 13), read-out: IC50, reduction of intracellular fluorescence induced by H2O2", "value": 500, "unit": "nM"},
      {"measurement": "protection, absorption test", "setting": "Jurkat cells; pre-incubated 2 hrs., medium washed, then H2O2 30 min (FIG. 14)", "value": "more than 90%"},
      {"measurement": "IC50", "setting": "Jurkat cells; pre-incubated 2 hrs., medium washed, then H2O2 30 min (FIG. 14), read-out: IC50, inhibition of intracellular fluorescence, absorption test", "value": 1900, "unit": "nM"},
      {"measurement": "IC50", "setting": "[2]", "value": "~160", "unit": "nM"},
      {"measurement": "COX-2 inhibition", "setting": "COX-2", "value": "scarcely inhibitor of the COX-2"}
    ]},
    {"compound": "Oc1cc(O)c2c(c1)O[C@H](c1ccc(O)c(O)c1)[C@@H](O)C2", "note": "[(+)-catechin]", "values": [
      {"measurement": "ORACFL value", "setting": "[3]", "value": 6.76, "unit": "μmol Trolox/μmol compound"},
      {"measurement": "ORACFL value expressed per mg", "setting": "[1]", "value": 23.3, "unit": "μmol Trolox/mg compound"}
    ]},
    {"compound": "N[C@@H](CCC(=O)N[C@@H](CS)C(=O)NCC(=O)O)C(=O)O", "note": "[GSH, reduced glutathione]", "values": [
      {"measurement": "ORAC value", "setting": "[1]", "value": 0.57, "unit": "Trolox equiv."}
    ]},
    {"compound": "O=C1O[C@H]([C@@H](O)CO)C(O)=C1O", "note": "[AA]", "values": [
      {"measurement": "ORAC value", "setting": "[1]", "value": 0.75, "unit": "Trolox equiv."}
    ]},
    {"compound": "O=c1c(O)c(-c2ccc(O)c(O)c2)oc2cc(O)cc(O)c12", "note": "[quercetin]", "values": [
      {"measurement": "ORACFL value", "setting": "[3]", "value": 7.28, "unit": "μmol Trolox/μmol compound"},
      {"measurement": "ORACFL value expressed per mg", "setting": "[1]", "value": 24.0, "unit": "μmol Trolox/mg compound"}
    ]}
  ]
}
